In ChEMBL document CHEMBL1134559 (J Med Chem, 2001):

Tests used:
Mu-type opioid receptor [1] = biological target: T1, Mu-type opioid receptor (Rattus norvegicus, UniProt P33535); test: Binding affinity to mu-opioid receptor of rat brain using [3H]DAMGO as radioligand.
Mu-type opioid receptor [2] = biological target: Mu-type opioid receptor (Cavia porcellus, UniProt P97266); test: Inhibition of stimulation of [35S]GTP-gamma-S, binding produced by the selective agonist (DAMGO, mu-receptor), in guinea pig caudate membranes.; format: functional, cell membranes
[3] = biological target: T2, Delta-type opioid receptor (Rattus norvegicus, UniProt P33533); test: Binding affinity to delta-opioid receptor of rat brain using [3H]DADLE as radioligand.
[4] = biological target: T3, Kappa-type opioid receptor (Cavia porcellus, UniProt P41144); test: Inhibition of stimulation of [35S]GTP-gamma-S, binding produced by the selective agonist (U69593, kappa-receptor), in guinea pig caudate membranes.
Mu-type opioid receptor [5] = biological target: T1, Mu-type opioid receptor; test: Antagonist activity on agonist (DAMGO) stimulated [35S]GTP-gamma-S, binding in cloned mu opioid receptors.; format: functional
[6] = biological target: T2, Delta-type opioid receptor; test: Binding affinity to delta-opioid receptor of rat brain using [3H]DADLE as radioligand
[7] = biological target: T3, Kappa-type opioid receptor; test: Binding affinity to opioid receptor kappa 1 of guinea pig brain, using [3H]U-69593 as radioligand
Mu-type opioid receptor [8] = biological target: T1, Mu-type opioid receptor; test: Binding affinity to mu-opioid receptor of rat brain using [3H]DAMGO as radioligand
[9] = Inhibition of stimulation of [35S]GTP-gamma-S, binding produced by the selective agonist (SNC-80, delta-receptor), in guinea pig caudate membranes

T1 sequence (P33535 whole entry): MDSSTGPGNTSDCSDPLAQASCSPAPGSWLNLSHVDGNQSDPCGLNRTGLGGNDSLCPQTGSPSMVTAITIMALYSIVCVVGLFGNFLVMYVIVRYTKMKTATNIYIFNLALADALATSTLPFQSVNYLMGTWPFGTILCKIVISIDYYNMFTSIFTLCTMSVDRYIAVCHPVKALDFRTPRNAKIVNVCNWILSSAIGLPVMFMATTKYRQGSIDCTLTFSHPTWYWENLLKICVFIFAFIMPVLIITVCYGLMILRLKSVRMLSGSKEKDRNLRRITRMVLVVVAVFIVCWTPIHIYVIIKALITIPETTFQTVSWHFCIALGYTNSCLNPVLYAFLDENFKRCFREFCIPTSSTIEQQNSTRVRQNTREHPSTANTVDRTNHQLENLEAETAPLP
T3 sequence (P41144 whole entry): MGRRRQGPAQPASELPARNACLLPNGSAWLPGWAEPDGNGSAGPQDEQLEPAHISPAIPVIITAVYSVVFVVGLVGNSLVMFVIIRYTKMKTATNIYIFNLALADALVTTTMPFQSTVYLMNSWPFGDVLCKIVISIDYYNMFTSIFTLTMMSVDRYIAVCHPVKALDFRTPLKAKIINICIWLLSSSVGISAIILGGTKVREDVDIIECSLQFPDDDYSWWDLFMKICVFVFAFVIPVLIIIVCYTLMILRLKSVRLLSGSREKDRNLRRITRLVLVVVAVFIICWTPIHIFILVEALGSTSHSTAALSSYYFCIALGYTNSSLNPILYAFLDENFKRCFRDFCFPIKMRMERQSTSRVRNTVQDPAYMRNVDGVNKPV
T2 sequence (P33533 whole entry): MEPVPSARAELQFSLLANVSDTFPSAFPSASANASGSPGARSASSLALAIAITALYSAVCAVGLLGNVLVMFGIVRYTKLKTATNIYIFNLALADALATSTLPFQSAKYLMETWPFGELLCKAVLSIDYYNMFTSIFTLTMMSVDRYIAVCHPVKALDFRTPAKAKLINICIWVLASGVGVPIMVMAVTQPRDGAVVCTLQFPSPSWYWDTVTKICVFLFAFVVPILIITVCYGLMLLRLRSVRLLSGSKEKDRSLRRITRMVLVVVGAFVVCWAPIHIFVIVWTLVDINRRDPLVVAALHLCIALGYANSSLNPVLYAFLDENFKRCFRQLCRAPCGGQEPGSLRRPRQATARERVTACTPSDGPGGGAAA
Mu-type opioid receptor (Cavia porcellus, UniProt P97266), sequence (P97266 whole entry): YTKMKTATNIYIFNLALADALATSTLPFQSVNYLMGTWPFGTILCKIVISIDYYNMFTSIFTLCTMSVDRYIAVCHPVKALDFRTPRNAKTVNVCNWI

Row | Structure (SMILES) | Ki (Mu-type opioid receptor [1]) | Ki (Mu-type opioid receptor [2]) | Ki [3] | Ki [4] | Ki (Mu-type opioid receptor [5]) | Ki [6] | Ki [7] | Ki (Mu-type opioid receptor [8]) | Ki [9]
1 | CC(C)[C@@H](CN1CC[C@@](C)(c2cccc(O)c2)[C@@H](C)C1)NC(=O)C1Cc2ccc(O)cc2CN1 (stereo partly specified) | 3.73 nM | 2.16 nM | 301 nM | 0.02 nM | 3.42 nM |  |  |  | 
2 | Oc1ccc2c3c1O[C@H]1c4[nH]c5c(c4C[C@@]4(O)[C@@H](C2)N(CC2CC2)CC[C@]314)C[C@@]1(O)[C@H]2Cc3ccc(O)c4c3[C@@]1(CCN2CC1CC1)[C@H]5O4 [NORBINALTORPHIMINE] |  |  |  |  |  | 86 nM | 109 nM |  | 
3 | CC(C)[C@@H](CN1CC[C@@](C)(c2cccc(O)c2)[C@@H](C)C1)NC(=O)CCc1ccc(O)cc1 |  |  |  |  |  | > 3400 nM | 3.84 nM | 171 nM | 450 nM
